Results taken from patent US6864251B2, “Treatment of LTB4-mediated inflammatory disorders with optically-pure (R)-2,3-benzodiazepines” (Vela Pharmaceuticals, Inc., priority 2002, dated 2005).
Where “and” joins values, the source holds several entries; their conditions need not be identical. Equal entries are not always repeated.

What was measured:
[1] = biological target: LTB4 receptor (Cavia porcellus, UniProt H0VYV8); assay: LTB4 binding assay, displacement of [3H]LTB4, guinea pig spleen membrane
Chain of LTB4 receptor (H0VYV8 1-348): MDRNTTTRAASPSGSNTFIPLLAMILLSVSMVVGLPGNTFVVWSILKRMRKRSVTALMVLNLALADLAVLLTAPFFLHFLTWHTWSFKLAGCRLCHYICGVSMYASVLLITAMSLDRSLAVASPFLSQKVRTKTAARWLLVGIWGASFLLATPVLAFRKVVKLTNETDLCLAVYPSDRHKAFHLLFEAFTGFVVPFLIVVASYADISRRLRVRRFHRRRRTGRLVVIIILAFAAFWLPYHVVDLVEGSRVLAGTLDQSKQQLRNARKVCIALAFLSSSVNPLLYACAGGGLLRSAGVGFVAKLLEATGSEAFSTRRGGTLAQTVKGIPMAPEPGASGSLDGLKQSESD
Method: Reactions were carried out in a phosphate buffer (pH 7.4) containing NaCl, MgCl2, EDTA, and bacitracin. The reaction volume of 150 μL containing 1.0 mg/mL of the Guinea pig spleen membrane preparation and 1 nM [^3H]LTB4, with or without a competitor, was incubated at 0-4° C. for 2 hours. Competitors included 2,3-benzodiazepines, and LTB4 as a control. The reaction was terminated by rapid vacuum filtration onto glass fiber filters. The filter was washed with cold buffer, dried and placed in a scintillation vial. Radioactivity trapped onto the filters was determined and compared to control values in order to ascertain any interactions of the test compound with the LTB4 binding site.

[2] = tested on: LTB4-induced dermal inflammation; assay: Rabbit model of LTB4-induced dermal inflammation, histopathology of intradermal challenge sites; type: in vivo, New Zealand White Rabbits; set-up: key to Inflammation score / Edema score: 0=normal; T=trace; 1=minimal; 2=mild; 3=moderate; 4=marked; conditions: test article IP 60 mg/kg (dexamethasone 0.5 mg/kg); for Inflammation score / Edema score: 4 hr after challenge; for Histopathology finding: reduction of inflammation and edema: summary in words
Method: Test compounds were prepared as follows. The vehicle was first prepared by dissolving […] of hydroxypropylmethylcellulose 2910 (HPMC)(Sigma Chemical, St. Louis, Mo.) in 50 mL of 0.9% saline to yield a concentration of 2% HPMC. The three test articles, (R)-, (S)- and racemic tofisopam, were formulated by adding 1 g of each test article to 10 mL of vehicle.
On Day 0, the rabbits were sedated with ketamine/xylazine (35/5 mg/kg, s.c.) and an area of approximately 8×14 cm on the back was closely and carefully clipped to expose the skin, but not inflame or otherwise damage the epithelium. A grid of ten squares each approximately 2.5×2.5 cm was drawn on each animal's back using an indelible marker. The animals were then dosed intraperitoneally with the appropriate test article corresponding to the group. Thirty minutes after dosing with test or control article, the animals were challenged intradermally with the LTB4 or LTB4-aminopropamide (LTB4-AP, a synthetic LTB4 agonist) in the appropriate site as shown in Table 4. Each injection site was marked with an indelible marker in order to identify the exact location of the intradermal injection site. Sixty minutes after challenge, the animals were treated again with tofisopam or control articles. The animals were sacrificed 4 hrs. after challenge, and the intradermal injection sites were excised, fixed in 10% neutral buffered formalin (NBF), and submitted for histopathology. H&E-stained sections were read by a board-certified veterinary pathologist using light microscopy.
All animals were sacrificed 4 hr after challenge. The intradermal challenge sites were excised, placed on unique cardboard squares, fixed in 10% NBF, and submitted for histopathology. The skin sections included the epidermis and the subcutis, down to the back musculature.
The marked skin sections were fixed for at least 48 hours on small cardboard squares. At gross trimming, three levels were cut through marked skin region in order to assure that the injection sites is brought into the plane of section. The skins were gross trimmed, processed by dehydration, embedded in paraffin, sectioned at 3-5 μm, and stained with hematoxylin and eosin.
The tissues were evaluated histopathologically via light microscopy by a board-certified veterinary pathologist. Initially, the identity of the slides was masked in order to perform the initial evaluation and rank the slides. The slides were then unmasked and there was a careful assessment of the lesions and careful comparison of the tofisopam-treated sites to the vehicle and positive control tissues. The lesions were graded based upon the degree of inflammation and the degree of edema. The severity of the inflammation and edema was keyed as follows: 0=normal; T=trace; 1=minimal; 2=mild; 3=moderate; 4=marked.

[3] = injection site: LTB4 2000 ng, listed as (R,S)-tofisopam
[4] = injection site: LTB-ap 2000 ng, listed as (R,S)-tofisopam

| Ki [1] [µM] | SMILES | Inflammation score ([2]; injection site: LTB4 500 ng) | Edema score ([2]; injection site: LTB4 1000 ng) | Inflammation score ([2]; injection site: LTB-ap 500 ng) | Edema score ([2]; injection site: LTB-ap 1000 ng) | Inflammation score ([2]; injection site: LTB-ap 1000 ng) | Inflammation score ([2]; injection site: Vehicle 0 ng) | Histopathology finding: reduction of inflammation and edema [2] | Edema score ([2]; injection site: LTB4 500 ng) | Edema score ([2]; injection site: LTB4 2000 ng) | Edema score ([2]; injection site: LTB-ap 500 ng) | Edema score ([2]; injection site: LTB-ap 2000 ng) | Edema score ([2]; injection site: Vehicle 0 ng) | other results |
| --- | --- | --- | --- | --- | --- | --- | --- | --- | --- | --- | --- | --- | --- | --- |
| 0.444 | CC[C@H]1C(C)=NN=C(c2ccc(OC)c(OC)c2)c2cc(OC)c(OC)cc21 [(R)-tofisopam, (R)-1-(3,4-dimethoxyphenyl)-4-methyl-5-ethyl-7,8-dimethoxy-5H-2,3-benzodiazepine] | 1 | 2 and 3 | 1 | 2 and 3 | 1 and 2 | 0 and 1 | meaningful reduction in the severity of the inflammatory cell infiltration and less edema | 1 and 3 | 2 and 3 | 1 and 3 | 2 and 3 and 1 | 0 and 1 and 2 | Inflammation score ([2]; injection site: LTB4 1000 ng): 1 and 2; Inflammation score ([2]; injection site: LTB4 2000 ng): 1-2 and 1; Inflammation score ([2]; injection site: LTB-ap 2000 ng): 1 and 2 |
| 76 | CC[C@@H]1C(C)=NN=C(c2ccc(OC)c(OC)c2)c2cc(OC)c(OC)cc21 [(S)-tofisopam, (S)-1-(3,4-dimethoxyphenyl)-4-methyl-5-ethyl-7,8-dimethoxy-5H-2,3-benzodiazepine] | 1 and 2 | 3 and 4 | – | 3 and 4 | – | T and 1 | no meaningful reduction in the inflammation and edema | 2 | 2 and 4 | 2 and 3 | 2 and 1 and 4 | T and 1 | – |

| SMILES | Ki [1] [µM] | Inflammation score ([2]; injection site: LTB4 500 ng) | Edema score ([2]; injection site: LTB4 1000 ng) | Inflammation score ([2]; injection site: LTB-ap 500 ng) | Edema score ([2]; injection site: LTB-ap 1000 ng) | Inflammation score ([2]; injection site: LTB-ap 1000 ng) | Inflammation score ([2]; injection site: Vehicle 0 ng) | Histopathology finding: reduction of inflammation and edema [2] | Edema score ([2]; injection site: LTB4 500 ng) | Edema score ([2]; injection site: LTB4 2000 ng) | Edema score ([2]; injection site: LTB-ap 500 ng) | Edema score ([2]; injection site: LTB-ap 2000 ng) | Edema score ([2]; injection site: Vehicle 0 ng) | other results |
| --- | --- | --- | --- | --- | --- | --- | --- | --- | --- | --- | --- | --- | --- | --- |
| CCC1C(C)=NN=C(c2ccc(OC)c(OC)c2)c2cc(OC)c(OC)cc21 (racemic) [Racemic tofisopam, Racemic-1-(3,4-dimethoxyphenyl)-4-methyl-5-ethyl-7,8-dimethoxy-5H-2,3-benzodiazepine] | 4.52 | 2 | 3 | 2 | 3 | 3 | 1 | no meaningful reduction in the inflammation and edema | – | – | – | – | – | Edema score ([2]; injection site: LTB4 500 ng, listed as (R,S)-tofisopam): 2 and 3; Inflammation score ([2]; injection site: LTB4 1000 ng, listed as (R,S)-tofisopam): 3 and 2; Edema score [2, 3]: 2 and 1 and 3; Inflammation score [2, 3]: 2 and 1 and 3; Edema score ([2]; injection site: LTB-ap 500 ng, listed as (R,S)-tofisopam): 2 and 3; Edema score [2, 4]: 2 and 1 and 3; Inflammation score [2, 4]: 2 and 1; Edema score ([2]; injection site: Vehicle 0 ng, listed as (R,S)-tofisopam): 2 and 1 |
